The structures appear in SMILES notation.

What all share (type): in vivo, rat
Test [1] concerns MCA from rats with induced SAH. Kind of test: Myograph contractile response to Ang II (via AT1) in cerebral arteries of treated SAH rats. Particulars: in presence of PD123319, compared to SAH rats, no significant difference to sham. On the procedure: The brains were quickly removed and chilled in ice-cold bicarbonate buffer solution (see composition below). Under a dissection microscope, the middle cerebral artery (MCA), the basilar artery (BA) and circle of Willis were carefully dissected free from the brain and cleared of connective tissue. The MCA and BA were immediately mounted in myographs for in vitro pharmacology or snap frozen at -80° C. and examined by real-time PCR. […] Measurements were recorded on a computer by use of a PowerLab unit (ADInstruments). […] The contractile capacity was determined by exposing the vessels to an isotonic solution containing 63.5 mM of K+, obtained by partial change of NaCl for KCl in the above buffer. […] Data are expressed as mean±standard error of the mean (s.e.m.), and n refers to the number of rats. […] In vitro Pharmacology Contractile responses in each segment are expressed as percentage of the 63.5 mM K+ induced contraction. […]

Test [2] concerns AT2 receptor mRNA. Nature of the test: Real-time PCR of receptor mRNA in cerebral arteries after SAH. Particulars: MCA, BA and circle of Willis grouped. On the technique in general: Quantitative PCR measures a nucleic acid by following its amplification.
The subject of test [3] is 5-HT1B receptor mRNA. The description is as above. Particulars: MCA, BA and circle of Willis grouped; SAH rats. On the procedure:
(§1) To quantify mRNA for the ETA, ETB and 5-HT1B receptors, RT-PCR and real-time detection monitoring the PCR products was employed. Total cellular RNA was extracted from BA, MCA and circle of Willis using the Trizol RNA isolation kit (Invitrogen, USA) following the suppliers instructions. Briefly, the arteries were homogenized in 1 ml of Trizol (Invitrogen, Sweden) by using a TissueLyser (VWR, Sweden). Subsequently 200 μl of chloroform was added and the samples were incubated in room temperature for 3 min, followed by centrifugation at 15000 g for 15 min at 4° C. The supernatant was collected and the organic phase discarded. 200 μl of chloroform was again added to remove all traces of phenol and the samples were centrifuged at 15000 g for 15 at 4° C. The aqueous supernatant was again collected and to precipitate the RNA equal amount of isopropanol was added and the samples incubated overnight at −20° C.
(§2) Subsequently, the RNA was centrifuged at 15000 g for 20 min at 4° C. […] Total RNA was determined using a GeneQuant Pro spectrophotometer measuring absorbance at 260/280 (Amersham Pharmacia Biotech, Uppsala, Sweden).
(§3) Reverse transcription of total RNA to cDNA was carried out using the Gene Amp RNA kit (Perkin-Elmer Applied Biosystems, USA) in a Perkin-Elmer 2400 PCR machine at 42° C. for 90 min and then 72° C. for 10 min. The real-time quantitative PCR was performed with the GeneAmp SYBR Green PCR kit (PE Applied Biosystems) in a Perkin-Elmer real-time PCR machine (GeneAmp 5700 sequence detection system). […] The system automatically monitors the binding of a fluorescent dye to double-strand DNA by real-time detection of the fluorescence during each cycle of PCR amplification. […]
(§4) PCR experiments were performed on BA, MCA and circle of Willis from SAH, SAH treated with raf inhibitor or PKC inhibitor and sham operated rats. Data were analysed with the comparative cycle threshold (CT) method (28). The CT values of EF-1 mRNA were used as a reference to quantify the relative amount of ETA, ETB and 5-HT1B mRNA. […]

Test [4] relates to ETA receptor mRNA. The test is described as above. The settings on record: MCA, BA and circle of Willis grouped. The protocol: as §1, §2, §3, §4
Test [5] relates to ETB receptor mRNA. The test is described as above. Particulars: MCA, BA and circle of Willis grouped; SAH rats. On the procedure: as §1, §2, §3, §4

Regarding `Oc1cc(-c2nc(-c3ccccc3)[nH]c2-c2ccncc2)ccc1Cl` [SB386023-b], the “Ang II induced contractile response” value in test [1] is “significantly attenuated”. In addition, the “expression of AT2 receptor mRNA, difference between sham, SAH and treated SAH” value in test [2] is listed as “no difference”. For the same compound, the “enhanced expression of 5-HT1B receptor mRNA” value in test [3] was “inhibited”. Moreover, the “expression of ETA receptor mRNA, difference between sham, SAH and treated SAH” value in test [4] is on record as “no difference”. Moreover, the “enhanced expression of ETB receptor mRNA” value in test [5] is “inhibited”.

Source of the values: patent US8273771B2, “Ischemic disorder or disease inhibitors” (Pronas Pharma AB, priority 2007, dated 2012).
